According to patent US20150005242A1, “AROMATIC-CATIONIC PEPTIDES AND USES OF SAME” (Institut de Recherches Cliniques de Montreal, priority 2010, published 2015):

Columns and labels:
[1] = tested on: renal ischemia-reperfusion (IR) injury; assay: restoration of mitochondrial respiration and ATP synthesis following renal ischemia-reperfusion (IR) injury; type: in vivo; conditions: rats, 2.0 mg/kg sc 30 min before ischemia and at reperfusion; for state 3 respiration (oxygen consumption) in isolated renal mitochondria: 45 min bilateral renal artery occlusion, 20 min reperfusion, p<0.01; for ATP content (ATP synthesis) in rat kidney: 45 min ischemia, 1 h after IR injury, P<0.05
Method: FIG. 2 is a chart showing treatment with D-Arg-Dmt-Lys-Phe-NH2 increased state 3 respiration in isolated renal mitochondria after 20 min IR injury (p<0.01).
FIG. 3 is a chart showing that treatment with D-Arg-Dmt-Lys-Phe-NH2 increased ATP content in rat kidney at 1 h after IR injury (P<0.05).
Preliminary studies further support our hypothesis that D-Arg-2′6′-Dmt-Lys-Phe-NH2 can facilitate ET and improve ATP synthesis in vivo. We have examined the effect of this peptide on restoration of mitochondrial respiration and ATP synthesis following ischemia-reperfusion (IR) injury in rats. Rats were subjected to bilateral occlusion of renal artery for 45 min followed by 20 min or 1 h reperfusion. Rats received saline or peptide (2.0 mg/kg sc) 30 min before ischemia and again at the time of reperfusion (n=4-5 in each group).

cytochrome c (cyt c) = cytochrome c (cyt c) (Homo sapiens, UniProt P99999); assay: kinetics of cyt c reduction monitored by absorbance spectroscopy (A550); type: biochemical; conditions: for cyt c reduction by peptide alone: peptide alone at 100 μM, no reducing agent
Sequence of cytochrome c (cyt c) (P99999 whole entry, species assumed): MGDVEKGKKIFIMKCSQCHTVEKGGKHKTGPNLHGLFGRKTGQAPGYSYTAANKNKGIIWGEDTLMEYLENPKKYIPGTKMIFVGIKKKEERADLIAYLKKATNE
Method: FIG. 1 is a chart showing that the peptide D-Arg-Dmt-Lys-Phe-NH2 increases the rate of cytochrome c (cyt c) reduction. Reduced cyt c was measured by absorbance at 550 nm. […] The peptide alone at 100 μM had no effect.
We hypothesize that the distribution of aromatic cationic peptides among the protein complexes in the IMM allows it to serve as additional relay stations to facilitate ET. In support of this hypothesis, we have used the kinetics of cyt c reduction (monitored by absorbance spectroscopy) as a simple model system to determine if the peptide D-Arg-2′6′-Dmt-Lys-Phe-NH2 can facilitate ET.

[2] = tested on: animal models of ischemia-reperfusion injury, neurodegenerative diseases, and metabolic syndrome; assay: animal models of ischemia-reperfusion injury, neurodegenerative diseases, and metabolic syndrome; type: in vivo
[3] = neutralization of reactive species and inhibition of lipid peroxidation; type: biochemical
mitochondrial ROS = mitochondrial ROS and mitochondrial function in cellular and animal studies; type: cell-based
Text: These examples identify “druggable” chemical compounds that can reduce mitochondrial oxidative stress and protect mitochondrial function. As mitochondria are the major source of intracellular reactive oxygen species (ROS), the antioxidant must be delivered to mitochondria in order limit oxidative damage to mitochondrial DNA, proteins of the electron transport chain (ETC), and the mitochondrial lipid membranes. We discovered a family of synthetic aromatic-cationic tetrapeptides that selectively target and concentrate in the inner mitochondrial membrane (IMM). Some of these peptides contain redox-active amino acids that can undergo one-electron oxidation and behave as mitochondria-targeted antioxidants. […] Although radical scavenging is the most commonly used approach to reduce oxidative stress, there are other potential mechanisms that can be used, including facilitation of electron transfer to reduce electron leak and improved mitochondrial reduction potential.

[4] = listed as D-Arg-2′6′-Dmt-Lys-Phe-NH2, 2 mg/kg

Substance | state 3 respiration (oxygen consumption) in isolated renal mitochondria ([1]; 2 mg/kg) | state 3 respiration (oxygen consumption) in isolated renal mitochondria [1, 4] | ATP content (ATP synthesis) in rat kidney ([1]; 2 mg/kg) | ATP content (ATP synthesis) in rat kidney [1, 4] | rate of NAC-induced cyt c reduction (cytochrome c (cyt c); 40 μM NAC as reducing agent, absorbance at 550 nm) | cyt c reduction by peptide alone (cytochrome c (cyt c)) | cyt c reduction by peptide alone (cytochrome c (cyt c); listed as D-Arg-2′6′-Dmt-Lys-Phe-NH2) | efficacy in animal models [2] | oral bioavailability | lipid peroxidation [3] | neutralization of H2O2 [3] | neutralization of hydroxyl radical [3] | neutralization of peroxynitrite [3] | mitochondrial ROS (mitochondrial ROS; cellular and animal studies) | mitochondrial function (mitochondrial ROS; cellular and animal studies) | protection against mitochondrial oxidative stress (mitochondrial ROS; compared with mitochondrial catalase overexpression)
D-Arg-2′6′-Dmt-Lys-Phe-NH2 [D-Arg-Dmt-Lys-Phe-NH2] | increased | improved | increased | improved | dose-dependently increased | had no effect | did not reduce cyt c | – | – | – | – | – | – | – | – | –
D-Arg-2′6′-Dmt-Tyr-Lys-Phe-NH2 | – | – | – | – | – | – | – | remarkable efficacy | limited by degradation in intestinal fluids | inhibit | can neutralize | can neutralize | can neutralize | reduces | protect | comparable to that observed with mitochondrial catalase overexpression
